Patent US6809065B2, “Herbicide containing substituted pyrazole derivative as active ingredient” (SDS Biotech K.K., priority 2001, dated 2004)

Tests used:
Stellaria media [1] = experiment: Upland soil treatment (Test Example 2); assay type: in vivo; conditions: soil surface treatment next day after sowing, wettable powder, 1 kg active ingredient per hectare, evaluated 21st day after application
How it was run: (§1)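 Index rating at day 21 after a single pre-emergence soil-surface application, 1 kg a.i./ha, made the day after sowing in upland soil; for crops a lower index indicates higher safety.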

Setaria viridis [2] = experiment: Upland soil treatment (Test Example 2); assay type: in vivo; conditions: soil surface treatment next day after sowing, wettable powder, 1 kg active ingredient per hectare, evaluated 21st day after application
How it was run: as §1

Digitaria adscendens [3] = experiment: Upland soil treatment (Test Example 2); assay type: in vivo; conditions: soil surface treatment next day after sowing, wettable powder, 1 kg active ingredient per hectare, evaluated 21st day after application
How it was run: as §1

Chenopodium album [4] = experiment: Upland soil treatment (Test Example 2); assay type: in vivo; conditions: soil surface treatment next day after sowing, wettable powder, 1 kg active ingredient per hectare, evaluated 21st day after application
How it was run: as §1

[5] = system: rice (Oryza sative, variety: Koshihikari); experiment: Paddy field treatment (Test Example 3), crop; assay type: in vivo, Oryza sativa; conditions: transplanted rice two-leaf period, water surface treatment 10th day after transplantation, 1 kg active ingredient per hectare, evaluated 21st day, lower index = higher safety
How it was run: (§2)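 Paddy soil in pots was puddled and flooded to 4 cm, weeds were sown, and two-leaf Koshihikari rice was transplanted at 3 cm depth. Ten days after transplanting, wettable powder was applied onto the water surface at 1 kg active ingredient per hectare. Herbicidal effect was index-scored 21 days later.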

[6] = system: wheat (Triticum aestivum); experiment: Upland soil treatment (Test Example 2), crop; assay type: in vivo; conditions: soil surface treatment next day after sowing, 1 kg active ingredient per hectare, evaluated 21st day, lower index = higher safety
How it was run: as §1

soybean (Glycine max) [7] = experiment: Upland soil treatment (Test Example 2), crop; assay type: in vivo; conditions: soil surface treatment next day after sowing, 1 kg active ingredient per hectare, evaluated 21st day, lower index = higher safety
How it was run: as §1

[8] = system: wheat (Triticum aestivum); experiment: Upland field foliage treatment (Test Example 1), crop; assay type: in vivo; conditions: foliage treatment 14th day after sowing, 1 kg active ingredient per hectare, evaluated 21st day, lower index = higher safety
How it was run: (§3)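 Foliar spray, 1 kg a.i./ha, wettable powder in water, applied 14 d post-sowing; seeds covered by ~1 cm upland soil. Index scoring at 21 d. Higher index = stronger weed control; for crops, lower index = greater safety.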

soybean (Glycine max) [9] = experiment: as above; assay type: in vivo; conditions: foliage treatment 14th day after sowing, 1 kg active ingredient per hectare, evaluated 21st day, lower index = higher safety
How it was run: as §3

Echinochloa spp. = experiment: Paddy field treatment (Test Example 3); assay type: in vivo, Echinochloa crusgalli; conditions: paddy pot, submerged 4 cm, dropped on water surface 10th day after transplantation, 1 kg active ingredient per hectare, evaluated 21st day
How it was run: as §2

Stellaria media [10] = experiment: Upland field foliage treatment (Test Example 1); assay type: in vivo; conditions: foliage treatment 14th day after sowing, wettable powder, 1 kg active ingredient per hectare, evaluated 21st day after application
How it was run: as §3

Setaria viridis [11] = experiment: Upland field foliage treatment (Test Example 1); assay type: in vivo; conditions: foliage treatment 14th day after sowing, wettable powder, 1 kg active ingredient per hectare, evaluated 21st day after application
How it was run: as §3

Digitaria adscendens [12] = experiment: Upland field foliage treatment (Test Example 1); assay type: in vivo; conditions: foliage treatment 14th day after sowing, wettable powder, 1 kg active ingredient per hectare, evaluated 21st day after application
How it was run: as §3

Chenopodium album [13] = experiment: Upland field foliage treatment (Test Example 1); assay type: in vivo; conditions: foliage treatment 14th day after sowing, wettable powder, 1 kg active ingredient per hectare, evaluated 21st day after application
How it was run: as §3

Scirpus juncoides = experiment: Paddy field treatment (Test Example 3); assay type: in vivo; conditions: paddy pot, submerged 4 cm, dropped on water surface 10th day after transplantation, 1 kg active ingredient per hectare, evaluated 21st day
How it was run: as §2

Monochoria vaginalis = experiment: Paddy field treatment (Test Example 3); assay type: in vivo; conditions: paddy pot, submerged 4 cm, dropped on water surface 10th day after transplantation, 1 kg active ingredient per hectare, evaluated 21st day
How it was run: as §2

Ammannia multiflora = experiment: Paddy field treatment (Test Example 3); assay type: in vivo; conditions: paddy pot, submerged 4 cm, dropped on water surface 10th day after transplantation, 1 kg active ingredient per hectare, evaluated 21st day
How it was run: as §2

Row | SMILES | Herbicidal activity Stellaria media (Stellaria media [1]) | Herbicidal activity Setaria viridis (Setaria viridis [2]) | Herbicidal activity Digitaria adscendens (Digitaria adscendens [3]) | Herbicidal activity Chenopodium album (Chenopodium album [4]) | Herbicidal activity Oryza sativa [5] | Herbicidal activity Triticum aestivum [6] | Herbicidal activity Glycine max (soybean (Glycine max) [7]) | Herbicidal activity Triticum aestivum [8] | Herbicidal activity Glycine max (soybean (Glycine max) [9]) | Herbicidal activity Echinochloa spp. (Echinochloa spp.) | Herbicidal activity Stellaria media (Stellaria media [10]) | Herbicidal activity Setaria viridis (Setaria viridis [11]) | Herbicidal activity Digitaria adscendens (Digitaria adscendens [12]) | Herbicidal activity Chenopodium album (Chenopodium album [13]) | Herbicidal activity Scirpus juncoides (Scirpus juncoides) | Herbicidal activity Monochoria vaginalis (Monochoria vaginalis) | Herbicidal activity Ammannia multiflora (Ammannia multiflora)
1 | COC=C(Cn1nc(-c2cccc(Cl)c2)c(Cl)c1SC)C(=O)OC [Compound 42] | 4 (herbicidal effect of not less than 70% by weight and less than 90% by weight) | 4 (herbicidal effect of not less than 70% by weight and less than 90% by weight) | 4 (herbicidal effect of not less than 70% by weight and less than 90% by weight) | 4 (herbicidal effect of not less than 70% by weight and less than 90% by weight) | 0 (herbicidal effect of not less than 0% by weight and less than 10% by weight) | 0 (herbicidal effect of not less than 0% by weight and less than 10% by weight) | 0 (herbicidal effect of not less than 0% by weight and less than 10% by weight) | 0 (herbicidal effect of not less than 0% by weight and less than 10% by weight) | 0 (herbicidal effect of not less than 0% by weight and less than 10% by weight) | 3 (herbicidal effect of not less than 50% by weight and less than 70% by weight) | 4 (herbicidal effect of not less than 70% by weight and less than 90% by weight) | 4 (herbicidal effect of not less than 70% by weight and less than 90% by weight) | 4 (herbicidal effect of not less than 70% by weight and less than 90% by weight) | 4 (herbicidal effect of not less than 70% by weight and less than 90% by weight) | 3 (herbicidal effect of not less than 50% by weight and less than 70% by weight) | 3 (herbicidal effect of not less than 50% by weight and less than 70% by weight) | 3 (herbicidal effect of not less than 50% by weight and less than 70% by weight)
2 | COC=C(Cn1nc(-c2cccc(Cl)c2Cl)cc1C)C(=O)OC [Compound 6] | 4 (herbicidal effect of not less than 70% by weight and less than 90% by weight) | 4 (herbicidal effect of not less than 70% by weight and less than 90% by weight) | 4 (herbicidal effect of not less than 70% by weight and less than 90% by weight) | 4 (herbicidal effect of not less than 70% by weight and less than 90% by weight) | 0 (herbicidal effect of not less than 0% by weight and less than 10% by weight) | 0 (herbicidal effect of not less than 0% by weight and less than 10% by weight) | 0 (herbicidal effect of not less than 0% by weight and less than 10% by weight) | 0 (herbicidal effect of not less than 0% by weight and less than 10% by weight) | 0 (herbicidal effect of not less than 0% by weight and less than 10% by weight) | 4 (herbicidal effect of not less than 70% by weight and less than 90% by weight) | 4 (herbicidal effect of not less than 70% by weight and less than 90% by weight) | 4 (herbicidal effect of not less than 70% by weight and less than 90% by weight) | 4 (herbicidal effect of not less than 70% by weight and less than 90% by weight) | 4 (herbicidal effect of not less than 70% by weight and less than 90% by weight) | 3 (herbicidal effect of not less than 50% by weight and less than 70% by weight) | 3 (herbicidal effect of not less than 50% by weight and less than 70% by weight) | 3 (herbicidal effect of not less than 50% by weight and less than 70% by weight)
3 | COC=C(Cn1nc(-c2ccccc2Cl)c(Cl)c1C)C(=O)OC [Compound 18] | 5 (herbicidal effect of not less than 90% by weight) | 4 (herbicidal effect of not less than 70% by weight and less than 90% by weight) | 5 (herbicidal effect of not less than 90% by weight) | 5 (herbicidal effect of not less than 90% by weight) | 1 (herbicidal effect of not less than 10% by weight and less than 30% by weight) | 0 (herbicidal effect of not less than 0% by weight and less than 10% by weight) | 0 (herbicidal effect of not less than 0% by weight and less than 10% by weight) | 0 (herbicidal effect of not less than 0% by weight and less than 10% by weight) | 0 (herbicidal effect of not less than 0% by weight and less than 10% by weight) | 5 (herbicidal effect of not less than 90% by weight) | 5 (herbicidal effect of not less than 90% by weight) | 4 (herbicidal effect of not less than 70% by weight and less than 90% by weight) | 5 (herbicidal effect of not less than 90% by weight) | 5 (herbicidal effect of not less than 90% by weight) | 5 (herbicidal effect of not less than 90% by weight) | 5 (herbicidal effect of not less than 90% by weight) | 5 (herbicidal effect of not less than 90% by weight)
4 | COC=C(Cn1nc(-c2c(Cl)cccc2Cl)cc1C)C(=O)OC [Compound 9] | 4 (herbicidal effect of not less than 70% by weight and less than 90% by weight) | 4 (herbicidal effect of not less than 70% by weight and less than 90% by weight) | 4 (herbicidal effect of not less than 70% by weight and less than 90% by weight) | 5 (herbicidal effect of not less than 90% by weight) | 0 (herbicidal effect of not less than 0% by weight and less than 10% by weight) | 0 (herbicidal effect of not less than 0% by weight and less than 10% by weight) | 0 (herbicidal effect of not less than 0% by weight and less than 10% by weight) | 0 (herbicidal effect of not less than 0% by weight and less than 10% by weight) | 0 (herbicidal effect of not less than 0% by weight and less than 10% by weight) | 3 (herbicidal effect of not less than 50% by weight and less than 70% by weight) | 4 (herbicidal effect of not less than 70% by weight and less than 90% by weight) | 4 (herbicidal effect of not less than 70% by weight and less than 90% by weight) | 4 (herbicidal effect of not less than 70% by weight and less than 90% by weight) | 4 (herbicidal effect of not less than 70% by weight and less than 90% by weight) | 3 (herbicidal effect of not less than 50% by weight and less than 70% by weight) | 3 (herbicidal effect of not less than 50% by weight and less than 70% by weight) | 3 (herbicidal effect of not less than 50% by weight and less than 70% by weight)
